{"source": "patent US20230000849A1", "about": "“INHIBITION OF SMARCA2 FOR TREATMENT OF CANCER” (Epizyme, Inc., priority 2017, published 2023)", "key": {"[1]": {"biological_target": "SMARCA2 (Homo sapiens, UniProt P51531)", "sequence (P51531 whole entry)": "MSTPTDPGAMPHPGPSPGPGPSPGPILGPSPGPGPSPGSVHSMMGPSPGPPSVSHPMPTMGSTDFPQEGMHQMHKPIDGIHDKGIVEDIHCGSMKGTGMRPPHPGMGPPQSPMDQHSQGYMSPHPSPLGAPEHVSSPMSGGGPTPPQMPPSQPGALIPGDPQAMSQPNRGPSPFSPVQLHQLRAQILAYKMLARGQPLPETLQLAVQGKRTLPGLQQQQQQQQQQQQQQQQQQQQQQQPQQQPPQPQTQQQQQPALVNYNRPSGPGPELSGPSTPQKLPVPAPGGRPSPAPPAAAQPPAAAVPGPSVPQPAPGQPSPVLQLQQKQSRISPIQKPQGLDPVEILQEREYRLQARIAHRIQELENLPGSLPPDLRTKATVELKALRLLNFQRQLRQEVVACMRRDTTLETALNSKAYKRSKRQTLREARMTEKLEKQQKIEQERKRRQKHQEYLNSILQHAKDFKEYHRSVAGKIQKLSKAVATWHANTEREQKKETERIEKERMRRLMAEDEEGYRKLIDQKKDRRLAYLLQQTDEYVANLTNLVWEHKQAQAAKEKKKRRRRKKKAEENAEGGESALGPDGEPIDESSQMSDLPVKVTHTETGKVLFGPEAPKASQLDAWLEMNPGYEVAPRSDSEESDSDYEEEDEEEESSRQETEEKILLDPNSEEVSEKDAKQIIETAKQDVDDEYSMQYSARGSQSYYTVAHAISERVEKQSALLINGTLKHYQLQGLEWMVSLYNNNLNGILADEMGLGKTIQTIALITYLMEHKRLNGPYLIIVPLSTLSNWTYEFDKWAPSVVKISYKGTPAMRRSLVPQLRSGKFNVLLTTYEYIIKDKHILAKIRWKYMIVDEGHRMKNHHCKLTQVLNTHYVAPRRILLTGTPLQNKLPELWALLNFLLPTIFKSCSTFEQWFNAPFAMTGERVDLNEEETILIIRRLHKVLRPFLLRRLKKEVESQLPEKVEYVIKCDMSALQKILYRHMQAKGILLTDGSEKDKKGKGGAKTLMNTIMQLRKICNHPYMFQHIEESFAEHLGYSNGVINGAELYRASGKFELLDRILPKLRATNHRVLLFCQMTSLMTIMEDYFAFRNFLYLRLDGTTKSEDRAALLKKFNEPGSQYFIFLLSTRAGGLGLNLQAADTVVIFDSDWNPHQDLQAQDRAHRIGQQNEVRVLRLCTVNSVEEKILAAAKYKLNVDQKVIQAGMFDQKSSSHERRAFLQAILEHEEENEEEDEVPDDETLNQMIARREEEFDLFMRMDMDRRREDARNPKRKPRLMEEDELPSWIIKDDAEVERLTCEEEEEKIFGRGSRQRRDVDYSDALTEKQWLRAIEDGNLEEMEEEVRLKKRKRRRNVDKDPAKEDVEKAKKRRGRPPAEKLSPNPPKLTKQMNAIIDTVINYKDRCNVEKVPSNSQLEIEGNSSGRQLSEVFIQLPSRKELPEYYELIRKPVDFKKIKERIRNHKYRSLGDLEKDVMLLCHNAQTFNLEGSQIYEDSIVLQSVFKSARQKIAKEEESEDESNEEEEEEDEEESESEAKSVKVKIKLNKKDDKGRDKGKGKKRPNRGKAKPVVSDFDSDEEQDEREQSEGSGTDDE", "assay": "SMARCA2 ATPase activity inhibition by known bromodomain inhibitors (HTS ADP-Glo bioluminescent format)", "format": "biochemical", "conditions": "read-out: % inh SMARCA2 at 10 nM", "protocol": "As such, the development of viable antagonists or inhibitors (i.e., ATPase inhibitors) requires methods of monitoring ATPase activity.\nThe signal to background ratio, ATPase activity as a function of protein concentration, and the dependence of ATP activity on mononucleosome substrate were determined for the isolated full length SMARCA2 and SMARACA4 in a high throughput screening bioluminescent assay (HTS ADP-Glo™ format)."}, "[2]": {"biological_target": "SMACA2 (Homo sapiens, UniProt P51531)", "sequence (P51531 whole entry)": "as above", "assay": "PFI-3 binding to SMARCA2 (FIG. 6A)"}, "[3]": {"tested_on": "SMARCA4 wild-type or mutant cell lines", "assay": "Cell growth in SMARCA4 wild-type or mutant cell lines (FIG. 6B)", "format": "cell-based", "conditions": "SMARCA4-wt or mutant cell lines", "description": "FIGS. 6A and 6B are a series of graphs illustrating antiproliferative effects of bromodomain inhibitor PFI-3."}}, "note": "“Also recorded” adds a separate entry of the source.", "data": [{"molecule": "O=C(/C=C/N1C[C@H]2C[C@@H]1CN2c1ccccn1)c1ccccc1O", "note": "[PFI3]", "values": [{"measurement": "inhibition at 0.01 µM", "setting": "[1]", "result": 5, "unit": "%"}, {"measurement": "binding affinity to SMARCA2", "setting": "[2]", "result": "nanomolar affinity"}, {"measurement": "effect on cell growth", "setting": "[3]", "result": "no functional effect; also recorded: does not impact cell growth"}]}]}
